{"source": "patent US6573299B1", "about": "“Method and compositions for treatment of the aging eye” (Advanced Medical Instruments, priority 1999, dated 2003)", "origin": "cited, not measured here", "key": {"[1]": {"system": "tumor necrosis factor-alpha (TNF-alpha) and nitric oxide production"}, "[2]": {"details": "long term high intake, greater than 1,000 mg/day"}, "[3]": {"assay": "not given", "remark": "listed apart in the source"}, "[4]": {"details": "diet of 6 mg of lutein per day"}, "retinal ganglion cells": {"system": "retinal ganglion cells", "details": "treated animals"}}}
{"compound": "Oc1ccc(C=Cc2cc(O)cc(O)c2)cc1", "note": "[Resveratrol, 3,5,4′-trihydroxystilbene]", "values": [{"measurement": "TNF-alpha and nitric oxide production", "setting": "[1]", "value": "inhibit tumor necrosis factor-alpha (TNF-alpha) and nitric oxide production"}, {"measurement": "nitric oxide synthase inhibition", "setting": "nitric oxide synthase", "value": "suppresses nitric oxide synthase"}]}
{"compound": "CCCCCCCCCCCCCCCC(=O)OC[C@H](O)[C@H]1OC(=O)C(O)=C1O", "note": "[ascorbyl palmitate]", "values": [{"measurement": "erythema from UV injured skin", "setting": "5% lotion", "value": "effective in reducing erythema"}, {"measurement": "erythema after exposure to UVB", "setting": "skin pretreated topically, lecithin gel base, compared to untreated skin", "value": "decreased erythema"}]}
{"compound": "O=C1O[C@H]([C@@H](O)CO)C(O)=C1O", "note": "[ascorbic acid]", "values": [{"measurement": "risk of cataracts", "setting": "[2]", "value": "substantially reduced risk of cataracts"}]}
{"compound": "Zinc", "values": [{"measurement": "loss of visual acuity in patients with AMD", "setting": "[3]; clinical trial, high-dose zinc supplementation", "value": "reduction in the loss of visual acuity"}, {"measurement": "AMD", "setting": "[3]; study published in 1988", "value": "improved AMD"}, {"measurement": "nitric oxide synthase inhibition", "setting": "nitric oxide synthase", "value": "very potent inhibitor"}]}
{"compound": "CC1=C[C@H](O)CC(C)(C)[C@H]1/C=C/C(C)=C/C=C/C(C)=C/C=C/C=C(C)/C=C/C=C(C)/C=C/C1=C(C)C[C@@H](O)CC1(C)C", "note": "[lutein]", "values": [{"measurement": "lower prevalence of AMD", "setting": "[4]", "value": 43, "unit": "%"}]}
{"compound": "N=C(N)NN", "note": "[aminoguanidine]", "values": [{"measurement": "loss of retinal ganglion cells", "setting": "retinal ganglion cells", "value": "reduction in the loss of retinal ganglion cells"}]}
